Measured values reported in patent US20250302832A1, “PYRAZINE DERIVATIVES AND USES THEREOF” (FOGHORN THERAPEUTICS INC., priority 2022, published 2025).

Tests used:
HiBit-BRM fusion protein = target: T1, HiBit-BRM fusion protein (Homo sapiens, UniProt P51531); test: HiBiT-BRM cell-based degradation assay (Nano-Glo HiBiT lytic detection, 24 h); conditions: HeLa cell line expressing HiBiT-BRM; for DC50: read-out: BRM HiBit Degradation IC50
T1 construct: expressed in transfected cells
Summary of the method: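 Stable HeLa HiBiT-BRM cells treated 24 h with compounds (10-point 3-fold dilutions, 30 μM final top dose, duplicate). HiBiT levels read by Nano-Glo lytic luminescence; % degradation normalised to DMSO (high control) and 2 μM reference BRM/BRG1 degrader (low control).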

[1] = target: T2, HiBit-BRG1 fusion protein (Homo sapiens, UniProt P51532); test: HiBiT-BRG1 cell-based degradation assay (Nano-Glo HiBiT lytic detection, 24 h); conditions: HeLa cell line expressing HiBit-BRG1 and LgBit; for Dmax: read-out: BRG1 HiBit Degradation Maximum (%); for DC50: read-out: BRMG1 HiBit Degradation IC50
T2 construct: expressed in transfected cells
Summary of the method: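 HeLa cells stably expressing HiBiT-BRG1 and LgBiT, 5000 per well, compound-treated 24 h, equilibrated 15 min at room temperature, then lysed with LgBiT-containing Nano-Glo HiBiT lytic reagent and luminescence read. % degradation normalised between DMSO (high control) and 2 μM reference BRM/BRG1 degrader (low control).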

T1 sequence (P51531 whole entry, the tested form may be a part): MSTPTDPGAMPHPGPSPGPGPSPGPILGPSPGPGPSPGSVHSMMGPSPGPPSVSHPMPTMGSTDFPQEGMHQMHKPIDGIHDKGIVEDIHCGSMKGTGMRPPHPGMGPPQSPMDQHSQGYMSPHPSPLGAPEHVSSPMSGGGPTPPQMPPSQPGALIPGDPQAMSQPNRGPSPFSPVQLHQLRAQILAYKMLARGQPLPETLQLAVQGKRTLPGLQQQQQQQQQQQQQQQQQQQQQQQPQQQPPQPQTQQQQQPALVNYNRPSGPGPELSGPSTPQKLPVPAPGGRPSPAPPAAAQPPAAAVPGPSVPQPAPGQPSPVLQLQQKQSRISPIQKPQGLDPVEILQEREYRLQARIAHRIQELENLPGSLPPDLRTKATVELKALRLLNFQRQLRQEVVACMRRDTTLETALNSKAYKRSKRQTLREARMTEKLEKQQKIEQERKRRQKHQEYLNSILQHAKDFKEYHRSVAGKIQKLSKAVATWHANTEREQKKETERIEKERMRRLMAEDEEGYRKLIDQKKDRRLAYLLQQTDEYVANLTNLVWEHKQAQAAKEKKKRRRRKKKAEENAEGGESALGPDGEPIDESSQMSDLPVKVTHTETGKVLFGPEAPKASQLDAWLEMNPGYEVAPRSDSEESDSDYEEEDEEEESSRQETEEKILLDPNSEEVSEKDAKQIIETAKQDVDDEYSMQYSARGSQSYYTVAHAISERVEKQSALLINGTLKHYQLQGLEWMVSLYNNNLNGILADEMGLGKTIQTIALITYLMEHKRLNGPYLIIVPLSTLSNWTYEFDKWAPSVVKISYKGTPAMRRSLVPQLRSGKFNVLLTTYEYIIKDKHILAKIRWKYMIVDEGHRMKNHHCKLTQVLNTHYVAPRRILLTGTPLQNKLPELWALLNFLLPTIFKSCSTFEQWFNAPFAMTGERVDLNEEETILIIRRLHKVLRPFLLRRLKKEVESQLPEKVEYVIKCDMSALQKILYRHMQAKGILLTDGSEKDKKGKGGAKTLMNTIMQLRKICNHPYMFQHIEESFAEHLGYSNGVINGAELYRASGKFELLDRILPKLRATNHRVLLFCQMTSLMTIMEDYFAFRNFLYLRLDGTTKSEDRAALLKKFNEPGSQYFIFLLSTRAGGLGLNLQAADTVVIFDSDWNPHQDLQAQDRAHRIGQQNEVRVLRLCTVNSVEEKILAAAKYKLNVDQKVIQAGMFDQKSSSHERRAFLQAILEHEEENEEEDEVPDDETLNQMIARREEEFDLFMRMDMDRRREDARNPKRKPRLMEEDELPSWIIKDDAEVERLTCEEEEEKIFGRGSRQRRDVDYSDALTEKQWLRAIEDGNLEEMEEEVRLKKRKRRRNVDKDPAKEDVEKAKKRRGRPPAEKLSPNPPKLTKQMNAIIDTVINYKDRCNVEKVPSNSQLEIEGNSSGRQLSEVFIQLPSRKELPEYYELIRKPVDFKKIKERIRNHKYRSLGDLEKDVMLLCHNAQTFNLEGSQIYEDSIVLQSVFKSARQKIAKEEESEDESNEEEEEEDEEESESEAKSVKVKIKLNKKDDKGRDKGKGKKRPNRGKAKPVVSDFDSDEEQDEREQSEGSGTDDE
T2 sequence (P51532 whole entry, the tested form may be a part): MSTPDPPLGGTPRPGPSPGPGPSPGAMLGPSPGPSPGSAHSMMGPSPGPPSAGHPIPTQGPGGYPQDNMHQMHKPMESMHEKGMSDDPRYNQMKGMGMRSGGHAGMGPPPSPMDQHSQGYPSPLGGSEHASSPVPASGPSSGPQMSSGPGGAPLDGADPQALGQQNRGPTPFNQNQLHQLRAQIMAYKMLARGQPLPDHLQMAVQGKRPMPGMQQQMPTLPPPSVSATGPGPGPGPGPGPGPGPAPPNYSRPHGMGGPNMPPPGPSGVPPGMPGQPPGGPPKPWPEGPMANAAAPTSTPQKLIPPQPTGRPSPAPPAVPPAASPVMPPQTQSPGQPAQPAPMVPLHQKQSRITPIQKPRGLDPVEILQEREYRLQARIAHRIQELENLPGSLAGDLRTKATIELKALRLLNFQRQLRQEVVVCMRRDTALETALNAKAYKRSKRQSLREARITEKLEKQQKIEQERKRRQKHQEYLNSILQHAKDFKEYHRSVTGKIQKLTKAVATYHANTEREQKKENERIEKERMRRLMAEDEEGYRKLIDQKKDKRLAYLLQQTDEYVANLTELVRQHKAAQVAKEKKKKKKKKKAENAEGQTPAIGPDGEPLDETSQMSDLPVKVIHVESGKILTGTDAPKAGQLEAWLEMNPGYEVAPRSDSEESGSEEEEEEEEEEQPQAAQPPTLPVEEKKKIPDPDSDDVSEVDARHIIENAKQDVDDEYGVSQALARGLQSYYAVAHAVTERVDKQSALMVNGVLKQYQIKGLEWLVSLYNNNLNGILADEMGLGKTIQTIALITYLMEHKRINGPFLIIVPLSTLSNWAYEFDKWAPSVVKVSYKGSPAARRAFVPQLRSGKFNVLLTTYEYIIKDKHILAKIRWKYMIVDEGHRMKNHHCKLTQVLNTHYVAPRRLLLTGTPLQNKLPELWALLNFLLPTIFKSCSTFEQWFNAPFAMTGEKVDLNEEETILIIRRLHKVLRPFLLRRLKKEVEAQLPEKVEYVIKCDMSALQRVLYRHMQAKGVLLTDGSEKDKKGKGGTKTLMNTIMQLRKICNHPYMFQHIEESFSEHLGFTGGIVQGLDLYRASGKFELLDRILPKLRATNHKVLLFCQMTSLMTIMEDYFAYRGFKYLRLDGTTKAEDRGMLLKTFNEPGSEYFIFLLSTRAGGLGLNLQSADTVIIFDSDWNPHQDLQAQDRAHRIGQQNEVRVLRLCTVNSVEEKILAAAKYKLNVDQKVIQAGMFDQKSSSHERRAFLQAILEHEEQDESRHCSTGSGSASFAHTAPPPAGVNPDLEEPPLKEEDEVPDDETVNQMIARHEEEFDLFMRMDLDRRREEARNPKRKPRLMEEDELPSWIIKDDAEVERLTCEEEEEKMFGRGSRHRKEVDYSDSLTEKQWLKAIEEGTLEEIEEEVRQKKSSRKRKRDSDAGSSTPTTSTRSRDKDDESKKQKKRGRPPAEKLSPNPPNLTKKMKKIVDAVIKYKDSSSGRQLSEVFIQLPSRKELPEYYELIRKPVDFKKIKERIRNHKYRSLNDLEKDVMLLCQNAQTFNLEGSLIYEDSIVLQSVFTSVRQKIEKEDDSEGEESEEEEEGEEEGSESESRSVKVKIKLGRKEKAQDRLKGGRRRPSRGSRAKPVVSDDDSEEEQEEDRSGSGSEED

SMILES	BRM HiBit Degradation Maximum (%) (HiBit-BRM fusion protein)	DC50 (HiBit-BRM fusion protein)	Dmax [1]	DC50 [1]
Cc1ncsc1-c1ccc([C@H](C)NC(=O)[C@@H]2C[C@@H](O)CN2C(=O)[C@@H](c2cc(-c3cnc(N4CC[C@@H](c5cc6nnc(-c7cc(F)cc(Cl)c7O)cc6n5C5CC5)C4)nc3)no2)C(C)C)cc1 [Compound 70, (2S,4R)-1-((R)-2-(3-(2-((R)-3-(3-(3-chloro-5-fluoro-2-hydroxyphenyl)-5-cyclopropyl-5H-pyrrolo[3,2-c]pyridazin-6-yl)pyrrolidin-1-yl)pyrimidin-5-yl)isoxazol-5-yl)-3-methylbutanoyl)-4-hydroxy-N-((S)-1-(4-(4-methylthiazol-5-yl)phenyl)ethyl)pyrrolidine-2-carboxamide]	A (“A” indicates maximum degradation ≥75%)	< 10 nM	< 50%	
C#Cc1ccc(CNC(=O)[C@@H]2C[C@@H](O)CN2C(=O)C(c2cc(N3CC4(CC(c5cc6nnc(-c7ccccc7O)cc6n5C5CCC5)C4)C3)no2)C(C)C)c(Cl)c1 (stereo partly drawn) [Compound 59, (2S,4R)-N-(2-chloro-4-ethynylbenzyl)-1-(2-(3-(6-(5-cyclobutyl-3-(2-hydroxyphenyl)-5H-pyrrolo[3,2-c]pyridazin-6-yl)-2-azaspiro[3.3]heptan-2-yl)isoxazol-5-yl)-3-methylbutanoyl)-4-hydroxypyrrolidine-2-carboxamide]	A (“A” indicates maximum degradation ≥75%)	> 10 nM	< 50%	
Cc1ncsc1-c1ccc([C@H](C)NC(=O)[C@@H]2C[C@@H](O)CN2C(=O)[C@@H](c2cc(N3CCC(N4CC(c5cc6nnc(-c7ccccc7O)cc6n5C)C4)CC3)no2)C(C)C)cc1 [Compound 12, (2S,4R)-4-hydroxy-1-((R)-2-(3-(4-(3-(3-(2-hydroxyphenyl)-5-methyl-5H-pyrrolo[3,2-c]pyridazin-6-yl)azetidin-1-yl)piperidin-1-yl)isoxazol-5-yl)-3-methylbutanoyl)-N-((S)-1-(4-(4-methylthiazol-5-yl)phenyl)ethyl)pyrrolidine-2-carboxamide]	A (“A” indicates maximum degradation ≥75%)	< 10 nM	> 75%	> 10 nM
Cc1ncsc1-c1ccc([C@H](C)NC(=O)[C@@H]2C[C@@H](O)CN2C(=O)[C@@H](c2cc(N3CCC[C@H](c4cc5nnc(-c6ccccc6O)cc5n4C4CC4)C3)no2)C(C)C)cc1 [Compound 98, (2S,4R)-1-((R)-2-(3-((S)-3-(5-cyclopropyl-3-(2-hydroxyphenyl)-5H-pyrrolo[3,2-c]pyridazin-6-yl)piperidin-1-yl)isoxazol-5-yl)-3-methylbutanoyl)-4-hydroxy-N-((S)-1-(4-(4-methylthiazol-5-yl)phenyl)ethyl)pyrrolidine-2-carboxamide]	A (“A” indicates maximum degradation ≥75%)	> 10 nM	> 75%	> 10 nM
C#Cc1ccc([C@H](C)NC(=O)[C@@H]2C[C@@H](O)CN2C(=O)C(c2cc(N3CC4(CC(c5cc6nnc(-c7ccccc7O)cc6n5C5CCC5)C4)C3)no2)C(C)C)cc1 (stereo partly drawn) [Compound 60, (2S,4R)-1-(2-(3-(6-(5-cyclobutyl-3-(2-hydroxyphenyl)-5H-pyrrolo[3,2-c]pyridazin-6-yl)-2-azaspiro[3.3]heptan-2-yl)isoxazol-5-yl)-3-methylbutanoyl)-N-((S)-1-(4-ethynylphenyl)ethyl)-4-hydroxypyrrolidine-2-carboxamide]	A (“A” indicates maximum degradation ≥75%)	< 10 nM	< 50%	
CC(C)C(C(=O)N1C[C@H](O)C[C@H]1C(=O)NCC1CC1)c1cc(N2CC3(CC(c4cc5nnc(-c6ccccc6O)cc5n4C4CCC4)C3)C2)no1 (stereo partly drawn) [Compound 55, (2S,4R)-1-(2-(3-(6-(5-cyclobutyl-3-(2-hydroxyphenyl)-5H-pyrrolo[3,2-c]pyridazin-6-yl)-2-azaspiro[3.3]heptan-2-yl)isoxazol-5-yl)-3-methylbutanoyl)-N-(cyclopropylmethyl)-4-hydroxypyrrolidine-2-carboxamide]	A (“A” indicates maximum degradation ≥75%)	> 10 nM	< 50%	
Cc1ncsc1-c1ccc([C@H](C)NC(=O)[C@@H]2C[C@@H](O)CN2C(=O)[C@@H](c2cc(OCCN3CC(c4cc5nnc(-c6ccccc6O)cc5[nH]4)C3)no2)C(C)C)cc1 [Compound 1, (2S,4R)-4-hydroxy-1-[(2R)-2-[3-(2-{3-[3-(2-hydroxyphenyl)-5H-pyrrolo[3,2-c]pyridazin-6-yl]azetidin-1-yl}ethoxy)-1,2-oxazol-5-yl]-3-methylbutanoyl]-N-[(1S)-1-[4-(4-methyl-1,3-thiazol-5-yl)phenyl]ethyl]pyrrolidine-2-carboxamide]	A (“A” indicates maximum degradation ≥75%)	> 10 nM	> 75%	> 100 nM
Cc1ncsc1-c1ccc([C@H](C)NC(=O)[C@@H]2C[C@@H](O)CN2C(=O)[C@@H](c2cc(-c3cnc(N4CC5(CC(c6cc7nnc(-c8ccccc8O)cc7n6C67CC(C6)C7)C5)C4)nc3)no2)C(C)C)cc1 [Compound 64, (2S,4R)-1-((R)-2-(3-(2-(6-(5-(bicyclo[1.1.1]pentan-1-yl)-3-(2-hydroxyphenyl)-5H-pyrrolo[3,2-c]pyridazin-6-yl)-2-azaspiro[3.3]heptan-2-yl)pyrimidin-5-yl)isoxazol-5-yl)-3-methylbutanoyl)-4-hydroxy-N-((S)-1-(4-(4-methylthiazol-5-yl)phenyl)ethyl)pyrrolidine-2-carboxamide]	A (“A” indicates maximum degradation ≥75%)	< 10 nM	< 50%	
CC(C)[C@@H](C(=O)N1C[C@H](O)C[C@H]1C(=O)N[C@@H](C)c1ccc(F)cc1)c1cc(-c2cnc(N3CC[C@H](c4cc5nnc(-c6ccccc6O)cc5n4C4CC4)C3)nc2)no1 [Compound 92, (2S,4R)-1-((R)-2-(3-(2-((S)-3-(5-cyclopropyl-3-(2-hydroxyphenyl)-5H-pyrrolo[3,2-c]pyridazin-6-yl)pyrrolidin-1-yl)pyrimidin-5-yl)isoxazol-5-yl)-3-methylbutanoyl)-N-((S)-1-(4-fluorophenyl)ethyl)-4-hydroxypyrrolidine-2-carboxamide]	A (“A” indicates maximum degradation ≥75%)	< 10 nM	< 50%	
Cc1ncsc1-c1ccc([C@H](C)NC(=O)[C@@H]2C[C@@H](O)CN2C(=O)[C@@H](c2cc(N3C[C@@H]4C(c5cc6nnc(-c7ccccc7O)cc6n5C5CC5)[C@H]4C3)no2)C(C)C)cc1 (stereo partly drawn) [Compound 101, (2S,4R)-1-((R)-2-(3-((1S,5S)-6-(5-cyclopropyl-3-(2-hydroxyphenyl)-5H-pyrrolo[3,2-c]pyridazin-6-yl)-3-azabicyclo[3.1.0]hexan-3-yl)isoxazol-5-yl)-3-methylbutanoyl)-4-hydroxy-N-((S)-1-(4-(4-methylthiazol-5-yl)phenyl)ethyl)pyrrolidine-2-carboxamide]	A (“A” indicates maximum degradation ≥75%)	< 10 nM	> 50%	> 10 nM
Cc1ncsc1-c1ccc([C@H](C)NC(=O)[C@@H]2C[C@@H](O)CN2C(=O)[C@H](C(C)C)n2cc(-c3cnc(N4CC[C@H](c5cc6nnc(-c7ccccc7O)cc6n5C5CC5)C4)nc3)nn2)cc1 [Compound 74, (2S,4R)-1-((S)-2-(4-(2-((S)-3-(5-cyclopropyl-3-(2-hydroxyphenyl)-5H-pyrrolo[3,2-c]pyridazin-6-yl)pyrrolidin-1-yl)pyrimidin-5-yl)-1H-1,2,3-triazol-1-yl)-3-methylbutanoyl)-4-hydroxy-N—((S)-1-(4-(4-methylthiazol-5-yl)phenyl)ethyl)pyrrolidine-2-carboxamide]	A (“A” indicates maximum degradation ≥75%)	< 10 nM	> 50%	< 10 nM
Cc1ncsc1-c1ccc([C@H](C)NC(=O)[C@@H]2C[C@@H](O)CN2C(=O)[C@@H](c2cc(N3CCC(c4cc5nnc(-c6ccccc6O)cc5n4C4CC4)CC3)no2)C(C)C)cc1 [Compound 76, (2S,4R)-1-((R)-2-(3-(4-(5-cyclopropyl-3-(2-hydroxyphenyl)-5H-pyrrolo[3,2-c]pyridazin-6-yl)piperidin-1-yl)isoxazol-5-yl)-3-methylbutanoyl)-4-hydroxy-N-((S)-1-(4-(4-methylthiazol-5-yl)phenyl)ethyl)pyrrolidine-2-carboxamide]	A (“A” indicates maximum degradation ≥75%)	< 10 nM	< 50%	
Cc1ncsc1-c1ccc([C@H](C)NC(=O)[C@@H]2C[C@@H](O)CN2C(=O)[C@@H](c2cc(-c3ccnc(N4CC[C@H](c5cc6nnc(-c7ccccc7O)cc6n5C5CC5)C4)n3)no2)C(C)C)cc1 [Compound 41]	A (“A” indicates maximum degradation ≥75%)	> 10 nM	< 50%	
Cc1ncsc1-c1ccc([C@H](C)NC(=O)[C@@H]2C[C@@H](O)CN2C(=O)[C@@H](c2cc(N3CCC4(CC[C@@H](c5cc6nnc(-c7ccccc7O)cc6n5C5CC5)C4)CC3)no2)C(C)C)cc1 [Compound 97, (2S,4R)-1-((R)-2-(3-((R)-2-(5-cyclopropyl-3-(2-hydroxyphenyl)-5H-pyrrolo[3,2-c]pyridazin-6-yl)-8-azaspiro[4.5]decan-8-yl)isoxazol-5-yl)-3-methylbutanoyl)-4-hydroxy-N-((S)-1-(4-(4-methylthiazol-5-yl)phenyl)ethyl)pyrrolidine-2-carboxamide]	A (“A” indicates maximum degradation ≥75%)	< 10 nM	< 50%	
